In ChEMBL document CHEMBL1201862, “PubChem BioAssay data set” (2004):
Activity calls are given as the source filed them.

Legend:
[1] = target: Endoplasmic reticulum aminopeptidase 2 (Homo sapiens, UniProt Q6P179); assay: ERAP2 aminopeptidase inhibitors, dose response, selectivity assay for selective ERAP1 modulator project, biochemical, fluorescence plate reader, cherry-picked, set 2 (AID 743320)
[2] = target: Endoplasmic reticulum aminopeptidase 1 (Homo sapiens, UniProt Q9NZ08); assay: ERAP1 aminopeptidase inhibitors, dose response, biochemical, cherry-pick, set 2, plate reader (AID 743314)
Endoplasmic reticulum aminopeptidase 1, sequence (Q9NZ08 whole entry): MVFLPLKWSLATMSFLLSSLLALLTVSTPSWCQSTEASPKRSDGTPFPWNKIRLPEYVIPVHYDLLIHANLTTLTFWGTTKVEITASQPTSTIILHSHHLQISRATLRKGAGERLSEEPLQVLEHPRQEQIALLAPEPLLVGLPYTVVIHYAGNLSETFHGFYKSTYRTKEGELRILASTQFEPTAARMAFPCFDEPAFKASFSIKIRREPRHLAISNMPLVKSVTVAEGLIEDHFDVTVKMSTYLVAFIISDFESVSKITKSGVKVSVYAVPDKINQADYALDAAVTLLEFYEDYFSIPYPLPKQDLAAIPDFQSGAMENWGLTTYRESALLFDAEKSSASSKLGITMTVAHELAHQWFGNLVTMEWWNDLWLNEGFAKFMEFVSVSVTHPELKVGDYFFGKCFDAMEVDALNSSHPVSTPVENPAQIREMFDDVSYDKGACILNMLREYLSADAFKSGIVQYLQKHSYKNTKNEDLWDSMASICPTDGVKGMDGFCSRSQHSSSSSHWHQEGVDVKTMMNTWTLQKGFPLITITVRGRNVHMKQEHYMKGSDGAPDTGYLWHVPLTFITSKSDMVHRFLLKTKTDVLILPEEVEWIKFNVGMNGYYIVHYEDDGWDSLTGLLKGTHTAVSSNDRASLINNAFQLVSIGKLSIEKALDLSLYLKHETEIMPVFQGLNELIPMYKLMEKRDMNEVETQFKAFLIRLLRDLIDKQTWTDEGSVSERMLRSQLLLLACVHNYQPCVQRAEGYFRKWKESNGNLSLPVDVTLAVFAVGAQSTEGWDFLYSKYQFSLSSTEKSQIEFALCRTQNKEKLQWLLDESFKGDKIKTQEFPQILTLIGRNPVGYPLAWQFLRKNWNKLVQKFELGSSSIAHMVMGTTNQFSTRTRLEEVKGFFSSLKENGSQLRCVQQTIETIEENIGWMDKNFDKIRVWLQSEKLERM

[3] = inhibitors of intracellular T. cruzi replication, confirmation, NIH3T3 host cells, beta-gal luminescence (AID 2044); format: functional, cell-based;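 note: intracellular parasites grown in NIH/3T3 mouse fibroblasts as host cells; luminescent beta-galactosidase reporter signal from transgenic T. cruzi replicating inside host cells; inhibitors lower the luminescence signal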
[4] = cytotoxicity toward NIH3T3 fibroblasts, dose response, counter-screen, cell-based, ATP luminescence, mouse fibroblasts (AID 2010); format: functional;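 note: cells exposed to compound for about 90 hours before reading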
INS1 = assay: beta cell apoptosis inhibitors, cytokine rescue, dose response, luminescence, retest (AID 449756); format: functional, cell-based; conditions: Rattus norvegicus;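 note: cell death triggered by IL-1 beta plus TNF-alpha plus IFN-gamma mixture; protective hits raise ATP signal compared with cytokine alone wells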
[5] = target: COUP transcription factor 2 (Homo sapiens, UniProt P24468); assay: Luminescence-based cell-based high throughput dose response assay to identify inhibitors of COUP-TFII (NR2F2).; format: functional;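 note: HEK293 cells transiently cotransfected with COUP-TFII expression vector and reporter; luciferase reporter luminescence driven by COUP-TFII from the pX2-168 reporter plasmid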
COUP transcription factor 2, sequence (P24468 whole entry): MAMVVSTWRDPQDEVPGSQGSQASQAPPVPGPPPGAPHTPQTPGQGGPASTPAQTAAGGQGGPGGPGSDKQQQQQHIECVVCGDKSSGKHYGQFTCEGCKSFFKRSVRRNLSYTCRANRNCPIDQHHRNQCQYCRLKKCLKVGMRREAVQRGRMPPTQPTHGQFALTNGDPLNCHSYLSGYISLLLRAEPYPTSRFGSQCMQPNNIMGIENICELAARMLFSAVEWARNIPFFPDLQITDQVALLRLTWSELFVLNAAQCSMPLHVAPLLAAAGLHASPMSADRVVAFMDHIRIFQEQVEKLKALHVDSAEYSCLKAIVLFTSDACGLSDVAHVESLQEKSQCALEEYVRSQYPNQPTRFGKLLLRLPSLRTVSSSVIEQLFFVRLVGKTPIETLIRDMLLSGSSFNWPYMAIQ

[6] = inhibitors of non-replicating M. tuberculosis, dose response, luciferase, dry powder (AID 651619); format: functional; conditions: Mycobacterium tuberculosis
[7] = cytotoxicity in HepG2 cells, dose response, cytotoxicity control, cell-based, plate reader, dry powder (AID 651947); format: functional
[8] = cytotoxicity in HeLa cells, dose response, cytotoxicity control, cell-based, plate reader, dry powder (AID 651946); format: functional
[9] = inhibitors of non-replicating M. tuberculosis, dose response, luciferase, dry powder (AID 651620); format: functional; conditions: Mycobacterium tuberculosis
[10] = HEK293T cell cytotoxicity, dose response, cytotoxicity control, CellTiter-Glo luminescence, dry powder, set 6 (AID 651949); format: functional, cell-based; conditions: HEK293
[11] = target: NAD-dependent protein deacylase sirtuin-5, mitochondrial (Homo sapiens, UniProt Q9NXA8); assay: SIRT5 deacylase inhibitors, dose response, biochemical, fluorescence imaging, cherry-pick, set 6 (AID 720597)
NAD-dependent protein deacylase sirtuin-5, mitochondrial, sequence (Q9NXA8 whole entry): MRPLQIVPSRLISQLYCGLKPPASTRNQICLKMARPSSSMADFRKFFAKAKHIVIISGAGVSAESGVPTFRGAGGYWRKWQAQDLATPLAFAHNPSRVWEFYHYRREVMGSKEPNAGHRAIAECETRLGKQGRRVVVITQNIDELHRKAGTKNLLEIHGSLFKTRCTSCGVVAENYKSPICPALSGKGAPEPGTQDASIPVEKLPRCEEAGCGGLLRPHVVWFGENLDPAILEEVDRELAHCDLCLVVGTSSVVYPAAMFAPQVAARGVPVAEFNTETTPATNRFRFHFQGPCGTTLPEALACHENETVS

[12] = test system: Streptococcus sp. 'group A'; assay: growth inhibition of control SK(-) GAS strain, dose response, counter-screen for streptokinase expression inhibitor project, luminescence, kanamycin, BacTiterGlo, confirmation (AID 1900); format: functional, organism-based
BJ [13] = assay: cytotoxicity toward BJ-TERT fibroblasts, dose response, cell-based, RAS-independent, luminescence (AID 1933); format: functional; conditions: Homo sapiens
BJ [14] = assay: cells; format: functional, cell-based; conditions: Homo sapiens
BJ [15] = assay: cytotoxicity toward BJ-TERT-LT-ST fibroblasts, dose response, cell-based, RAS-independent, luminescence (AID 1935); format: functional; conditions: Homo sapiens;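 note: BJ fibroblasts immortalized with TERT plus LT and ST oncogenes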
[16] = cytotoxicity toward DRD oncogenic fibroblasts, dose response, cell-based, non-viral oncogenic, luminescence (AID 1934); format: functional; conditions: Homo sapiens
Streptococcus = assay: Group A Streptococcus viability loss, dose response, counter-screen for streptokinase expression inhibitor project, luminescence, BacTiterGlo (AID 1915); format: functional, organism-based;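 note: potency for reduction of bacterial viability or growth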
HEK293 = assay: inhibitors of LMP1-driven NF-kB reporter, dose response, cell-based, HEK293, luciferase, cherry-pick (AID 588343); format: functional; conditions: Homo sapiens
P388/ADR = assay: cells; format: functional; conditions: Mus musculus
SN12K1 = assay: cells; format: functional; conditions: Homo sapiens
P388 = assay: cells; format: functional; conditions: Mus musculus
[17] = off-target signal loss in HeLa-CEM21 co-culture – HeLa F-luc CTL cells, cherry-picked, counter-screen for HIV-1 Env fusion inhibitor project, dose response (AID 652040); format: functional, cell-based;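 note: potency for signal decrease marking cytotoxic or nonspecific inhibition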
[18] = HeLa 2N DNA content increase, dose response, cell-based, IC50 (AID 1117349); format: functional
[19] = Concentration-dependent survival of SW480 colon cancer line, luminescence detection with CellTiter-Glo, half-maximal inhibitory concentration (AID 1117338); format: functional
[20] = RKO cell viability reduction, dose response, CellTiter-Glo luminescence (AID 1117322); format: functional
[21] = cytotoxicity toward HCT116 cells – cell-based, CellTiter-Glo luminescence, IC50, dose response (AID 1117332); format: functional; conditions: HCT-116
[22] = SNU-C1 cell viability reduction, dose response, CellTiter-Glo luminescence (AID 1117323); format: functional, cell-based
[23] = cytotoxicity toward Colo320 cells – cell-based, CellTiter-Glo luminescence, IC50, dose response (AID 1117334); format: functional; conditions: COLO 320
[24] = HeLa 4N DNA content increase, dose response, cell-based, IC50 (AID 1117351); format: functional
[25] = cytotoxicity toward HT-29 cells – cell-based, CellTiter-Glo luminescence, IC50, dose response (AID 1117330); format: functional
[26] = CellTiter-Glo luminescent dose response of DLD-1 viability loss (AID 1117352); format: functional
[27] = HCT116 cell viability decrease, GSK3B pretreatment – CellTiter-Glo, IC50, dose response (AID 1117339); format: functional; conditions: HCT-116
Beta-galactosidase = Beta-galactosidase (Escherichia coli, UniProt Q8VNN2); assay: Dose response counterscreen for EBI2 assay utilizing the enzyme, b-galactosidase.; format: functional
Beta-galactosidase, sequence (Q8VNN2 whole entry): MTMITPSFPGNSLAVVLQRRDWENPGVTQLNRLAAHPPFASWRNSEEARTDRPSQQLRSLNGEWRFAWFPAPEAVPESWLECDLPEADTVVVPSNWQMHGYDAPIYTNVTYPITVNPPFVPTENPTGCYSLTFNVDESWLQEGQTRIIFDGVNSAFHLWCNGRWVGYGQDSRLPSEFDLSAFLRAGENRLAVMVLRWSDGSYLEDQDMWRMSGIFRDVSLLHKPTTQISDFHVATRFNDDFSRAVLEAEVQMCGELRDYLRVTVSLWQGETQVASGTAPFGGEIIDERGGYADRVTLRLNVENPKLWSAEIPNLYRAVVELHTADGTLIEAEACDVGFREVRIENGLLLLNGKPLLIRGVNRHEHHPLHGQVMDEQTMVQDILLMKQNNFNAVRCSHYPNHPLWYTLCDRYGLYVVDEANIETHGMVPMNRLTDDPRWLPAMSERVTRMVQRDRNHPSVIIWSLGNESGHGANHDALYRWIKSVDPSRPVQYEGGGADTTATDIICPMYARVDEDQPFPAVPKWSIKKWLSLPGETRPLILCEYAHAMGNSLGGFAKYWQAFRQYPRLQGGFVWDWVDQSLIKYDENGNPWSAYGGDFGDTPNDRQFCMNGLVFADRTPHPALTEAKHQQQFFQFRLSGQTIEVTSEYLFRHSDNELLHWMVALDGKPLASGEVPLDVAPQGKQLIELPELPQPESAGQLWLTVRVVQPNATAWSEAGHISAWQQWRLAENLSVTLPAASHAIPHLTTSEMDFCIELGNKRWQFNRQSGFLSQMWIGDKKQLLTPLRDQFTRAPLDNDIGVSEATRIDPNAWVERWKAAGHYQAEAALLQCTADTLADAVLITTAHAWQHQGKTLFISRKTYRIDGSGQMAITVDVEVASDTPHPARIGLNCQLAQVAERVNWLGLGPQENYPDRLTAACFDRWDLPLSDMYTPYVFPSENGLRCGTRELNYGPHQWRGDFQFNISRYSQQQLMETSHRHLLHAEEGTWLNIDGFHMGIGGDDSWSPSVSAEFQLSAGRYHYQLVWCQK

[28] = target: T1, G-protein coupled receptor 183 (Homo sapiens, UniProt P32249); assay: Dose-response confirmation of small molecule antagonists of the EBI2 receptor via a luminescent beta-arrestin assay.; format: functional
T1 sequence (P32249 whole entry): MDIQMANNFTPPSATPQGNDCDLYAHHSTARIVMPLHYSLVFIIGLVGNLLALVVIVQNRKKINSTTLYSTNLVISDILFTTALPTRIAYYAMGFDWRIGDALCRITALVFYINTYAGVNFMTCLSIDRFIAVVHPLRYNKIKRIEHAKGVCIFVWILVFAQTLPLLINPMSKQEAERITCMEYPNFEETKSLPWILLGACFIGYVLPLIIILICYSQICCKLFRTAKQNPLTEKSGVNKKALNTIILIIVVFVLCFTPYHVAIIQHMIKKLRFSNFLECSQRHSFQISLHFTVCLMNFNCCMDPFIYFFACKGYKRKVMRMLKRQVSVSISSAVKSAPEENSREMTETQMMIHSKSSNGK

[29] = target: T1, G-protein coupled receptor 183; assay: SAR confirmation of small molecule antagonists of the EBI2 receptor via a luminescent beta-arrestin assa.; format: functional
[30] = P. falciparum 3D7-ScDHODH growth inhibitors, dose response, SYBR Green, dry powder samples (AID 1159570); format: functional, cell-based;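 note: parasite growth measured after 72 hours of compound exposure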
[31] = HepG2 cell cytotoxicity, dose response, cytotoxicity control, plate reader, dry powder samples (AID 1159569); format: functional, cell-based;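 note: inhibitor potency with signal falling toward the positive control level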
[32] = P. falciparum Dd2 growth inhibitors, dose response, SYBR Green, cherry-picked samples (AID 1159567); format: functional, cell-based
[33] = P. falciparum Dd2 blood-stage growth inhibition, dose response, SYBR Green fluorescence, erythrocytes, dry powder, set 2 (AID 1159574); format: functional, cell-based
[34] = P. falciparum Dd2 growth inhibitors, dose response, SYBR Green, dry powder samples (AID 1159566); format: functional, cell-based;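 note: potency for growth inhibition with lower SYBR green DNA signal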
[35] = P. falciparum ATP4 D1247Y mutant growth inhibitors, dose response, NITD609-resistant line, SYBR Green, dry powder (AID 1159571); format: functional, cell-based;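 note: parasites synchronized at ring stage by sorbitol before testing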

Endoplasmic reticulum aminopeptidase 2, sequence (Q6P179 whole entry): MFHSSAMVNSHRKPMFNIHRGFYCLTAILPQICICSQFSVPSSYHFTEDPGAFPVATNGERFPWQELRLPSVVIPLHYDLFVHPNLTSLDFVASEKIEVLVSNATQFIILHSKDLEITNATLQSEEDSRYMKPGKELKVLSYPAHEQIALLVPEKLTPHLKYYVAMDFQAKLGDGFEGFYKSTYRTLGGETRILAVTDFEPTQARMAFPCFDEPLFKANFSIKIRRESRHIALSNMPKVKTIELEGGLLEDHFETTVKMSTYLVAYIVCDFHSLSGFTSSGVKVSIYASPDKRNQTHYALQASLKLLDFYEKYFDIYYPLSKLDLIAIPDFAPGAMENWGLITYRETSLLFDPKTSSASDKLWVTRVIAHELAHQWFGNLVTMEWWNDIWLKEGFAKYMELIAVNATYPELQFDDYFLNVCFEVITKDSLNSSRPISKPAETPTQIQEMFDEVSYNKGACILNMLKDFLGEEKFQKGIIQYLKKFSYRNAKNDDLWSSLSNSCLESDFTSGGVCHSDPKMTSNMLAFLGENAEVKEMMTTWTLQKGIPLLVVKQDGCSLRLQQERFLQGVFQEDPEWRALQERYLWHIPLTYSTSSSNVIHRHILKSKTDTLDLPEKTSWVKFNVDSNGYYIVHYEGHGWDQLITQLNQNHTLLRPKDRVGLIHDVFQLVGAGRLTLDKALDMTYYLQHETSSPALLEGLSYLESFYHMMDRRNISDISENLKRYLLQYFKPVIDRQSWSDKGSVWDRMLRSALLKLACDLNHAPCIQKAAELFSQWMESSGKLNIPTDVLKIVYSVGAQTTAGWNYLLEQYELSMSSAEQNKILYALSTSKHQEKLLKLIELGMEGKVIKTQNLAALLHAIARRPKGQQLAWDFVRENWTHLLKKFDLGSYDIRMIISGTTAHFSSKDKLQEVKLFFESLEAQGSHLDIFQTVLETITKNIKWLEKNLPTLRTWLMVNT

Structure (SMILES): CCC(=O)N(C)C[C@@H]1Oc2ncc(C#Cc3ccncc3)cc2C(=O)N([C@@H](C)CO)C[C@@H]1C
- AC50 [1]: 17200 nM (active)
- AC50 [2]: 2860 nM (active)

Structure (SMILES): Cc1ccc(-c2cc3cccc[n+]3cc2-c2ccc(C)cc2)cc1
- EC50 [3]: < 100 nM (active)
- EC50 [4]: > 60000 nM (not active)
- AC50 (INS1): 572 nM (active)
- IC50 [5]: 5100 nM (active)
- EC50 (cells): 19 nM (active)

Structure (SMILES): Brc1ccc(-c2nnc(SCc3ccccn3)o2)cc1
- IC90 [6]: 4000 nM (active)
- AC50 [7]: 5420 nM (active)
- AC50 [8]: > 52000 nM (inactive)
- IC90 [9]: 4000 nM (active)

Structure (SMILES): CS(=O)(=O)c1ccc(CSc2nnc(-c3ccccc3)o2)cc1
- AC50 [7]: 280 nM (active)
- AC50 [10]: 49000 nM (active)

Structure (SMILES): COCCNC(=O)C[C@@H]1CC[C@H]2[C@H](COc3ccc(NC(=O)Nc4cccc(F)c4)cc3C(=O)N2C)O1
- AC50 [11]: > 30000 nM (inactive)

Structure (SMILES): O=c1[nH]c(=O)n([C@H]2C[C@H](O)[C@@H](CO)O2)cc1F [FLOXURIDINE]
- EC50 [12]: 916 nM (active)
- EC50 (BJ [13]): 57000 nM (active)
- EC50 (BJ [14]): 596 nM (active)
- EC50 (BJ [15]): > 150000 nM (inconclusive)
- EC50 [16]: > 150000 nM (not active)
- EC50 (Streptococcus): 1340 nM (active)
- AC50 (HEK293): 61.9 nM (active)
- GI50 (P388/ADR): 250 nM (active)
- GI50 (SN12K1): 340 nM (active)
- GI50 (P388): 250 nM (active)
- AC50 [17]: > 70000 nM (inactive)
- IC50 [18]: > 10000 nM (inactive)
- IC50 [19]: > 20000 nM (inactive)
- IC50 [20]: 1 nM (active)
- IC50 [21]: 1 nM (active)
- IC50 [22]: > 20000 nM (inactive)
- IC50 [23]: > 20000 nM (inactive)
- IC50 [24]: > 10000 nM (inactive)
- IC50 [25]: > 20000 nM (inactive)
- IC50 [26]: 1 nM (active)
- IC50 [27]: 1 nM (active)

Structure (SMILES): O=C(/C=C/c1ccc(F)cc1)N1CCN(S(=O)(=O)/C=C/c2ccccc2)CC1
- IC50 (Beta-galactosidase): > 80000 nM (inactive)
- IC50 [28]: 6.75 nM (active)
- IC50 [29]: 3.59 nM (active)

Structure (SMILES): COc1ccc(NC(=O)N2CCCCN3[C@H](CO)[C@H](c4ccc(C#Cc5ccccc5)cc4)[C@@H]3C2)cc1
- AC50 [30]: 3.46 nM (active)
- AC50 [31]: 85100 nM (active)
- AC50 [32]: < 300 nM (active)
- AC50 [33]: 6.52 nM (active)
- AC50 [34]: 3.84 nM (active)
- AC50 [35]: 3.09 nM (active)
